Results published in patent US10590113B2, “6-hydroxy-4-oxo-1,4-dihydropyrimidine-5-carboxamides as APJ agonists” (priority 2016, dated 2020).
pEC50: −log10 of the molar value.

Biological target: T1, human APJ receptor (Homo sapiens, UniProt P35414)
T1 construct: expressed in transfected cells; host or cells: HEK293
T1 sequence (P35414 1-380): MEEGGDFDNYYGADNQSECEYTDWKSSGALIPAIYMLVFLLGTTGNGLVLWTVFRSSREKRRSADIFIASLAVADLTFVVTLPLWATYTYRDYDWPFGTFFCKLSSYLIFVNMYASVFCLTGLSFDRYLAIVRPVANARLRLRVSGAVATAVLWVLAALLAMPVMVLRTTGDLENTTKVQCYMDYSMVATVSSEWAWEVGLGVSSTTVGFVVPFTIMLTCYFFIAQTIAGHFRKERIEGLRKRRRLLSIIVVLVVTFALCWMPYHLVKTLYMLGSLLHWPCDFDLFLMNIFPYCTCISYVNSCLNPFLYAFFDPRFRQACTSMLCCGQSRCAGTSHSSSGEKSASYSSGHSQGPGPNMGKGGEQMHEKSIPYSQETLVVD
Assay: Intracellular cAMP Accumulation Assay (APJ hcAMP, HTRF)
Format: cell-based
Details: not given
Protocol: Intracellular cAMP Accumulation Assay
HEK293 cells stably expressing human APJ receptor were used to assess the activity of compounds. Cultured cells were detached and resuspended in the cAMP
Homogeneous Time-Resolved Fluorescence (HTRF) assay buffer (Cisbio cat; #62AM4PEJ). The assay was performed in 384-well assay plates (Perkin-Elmer; cat #6008289) according to assay protocol provided by the manufacturer. Serial dilutions of a compound together with assay buffer containing […] IBMX and 2 μM forskolin were added to each well containing 5,000 cells and incubated for 30 minutes at room temperature. Subsequently, cAMP D2 reagent was added in the lysis buffer followed by the EuK antibody (Cisbio; cat #62AM4PEJ) and incubated for 60 min. The fluorescence emission ratio was measured using fluorometer. The intracellular cAMP concentrations (compound-stimulated inhibition of forskolin-mediated cAMP production) were calculated by extrapolation from a standard curve using known cAMP concentrations. The EC50 values were obtained by fitting the data to a sigmoidal concentration-response curve with variable slope.
The EC50 value of each compound is presented at the end of the example description.
The biological activity of the exemplified compounds of this invention determined by the assay described above is shown at the end of each example.

Row | SMILES | pEC50
1 | CCCCc1nc(=O)c(C(=O)N2CCC(c3ccc(Cl)cn3)C2)c(O)n1-c1c(OC)cccc1OC (single isomer, unassigned) [Example 41, 2-butyl-5-(3-(5-chloropyridin-2-yl)pyrrolidine-1-carbonyl)-1-(2,6-dimethoxyphenyl)-6-hydroxypyrimidin-4(1H)-one] | 8.00 to 11.00
2 | CCCCc1nc(=O)c(C(=O)N2CCC(c3ccc(Cl)cc3)C2)c(O)n1-c1c(OC)cccc1OC (single isomer, unassigned) [Example 46, 2-butyl-5-[3-(4-chlorophenyl)pyrrolidine-1-carbonyl]-1-(2,6-dimethoxyphenyl)-6-hydroxy-1,4-dihydropyrimidin-4-one] | 8.00 to 11.00
3 | CCCCc1nc(=O)c(C(=O)N2CCC(c3ccncc3)C2)c(O)n1-c1c(OC)cccc1OC (single isomer, unassigned) [Example 47, 2-butyl-1-(2,6-dimethoxyphenyl)-6-hydroxy-5-[3-(pyridin-4-yl)pyrrolidine-1-carbonyl]-1,4-dihydropyrimidin-4-one] | 8.00 to 11.00

Same assay, conditions: HEK293 cells stably expressing human APJ receptor; inhibition of forskolin-mediated cAMP production; read-out: Human APJ cAMP EC50 potency range

Row | SMILES | pEC50
4 | C=CCCc1nc(O)c(C(=O)N2CC[C@H](c3ccccc3)C2)c(=O)n1-c1c(C)cccc1OC (single isomer, unassigned) [Example 8] | 8.00 to 11.00
5 | C=CCCc1nc(O)c(C(=O)N2CC[C@H](c3ccccc3)C2)c(=O)n1-c1c(C)cccc1OC (single isomer, unassigned) [Example 8″] | 8.00 to 11.00

Same assay, conditions: human APJ, intracellular cAMP accumulation; read-out: hAPJ cAMP EC50 Potency range

Row | SMILES | pEC50
6 | CCOCc1nc(=O)c(C(=O)N2CCC(c3cccc(Cl)c3)C2)c(O)n1-c1c(OC)cccc1OC (racemic) [Example 26, 5-(3-(3-chlorophenyl)pyrrolidine-1-carbonyl)-1-(2,6-dimethoxyphenyl)-2-(ethoxymethyl)-6-hydroxypyrimidin-4(1H)-one] | 8.00 to 11.00
7 | COc1cccc(OC)c1-n1c(CC2CC2)nc(=O)c(C(=O)N2CCC(c3cccc(Cl)c3)C2)c1O (racemic) [Example 28, 5-(3-(3-chlorophenyl)pyrrolidine-1-carbonyl)-2-(cyclopropylmethyl)-1-(2,6-dimethoxyphenyl)-6-hydroxypyrimidin-4(1H)-one] | 8.00 to 11.00
8 | CCCCc1nc(=O)c(C(=O)N2CCC(Cc3ccccc3)C2)c(O)n1-c1c(OC)cccc1OC (racemic) [Example 73, 5-(3-benzylpyrrolidine-1-carbonyl)-2-butyl-1-(2,6-dimethoxyphenyl)-6-hydroxy-1,4-dihydropyrimidin-4-one] | 8.00 to 11.00
9 | CCCCc1nc(O)c(C(=O)N2CCC(c3ccc(F)cc3)C2)c(=O)n1-c1c(CC)cccc1CC (racemic) [Example 89, 2-butyl-3-(2,6-diethylphenyl)-5-[3-(4-fluorophenyl)pyrrolidine-1-carbonyl]-6-hydroxy-3,4-dihydropyrimidin-4-one] | 8.00 to 11.00
10 | COc1cccc(OC)c1-n1c(COC2CC2)nc(=O)c(C(=O)N2CCC(c3ccccc3F)C2)c1O (single isomer, unassigned) [Example 10, 2-(cyclopropoxymethyl)-1-(2,6-dimethoxyphenyl)-5-(3-(2-fluorophenyl)pyrrolidine-1-carbonyl)-6-hydroxypyrimidin-4(1H)-one] | 8.00 to 11.00
11 | COc1cccc(OC)c1-n1c(COC2CC2)nc(=O)c(C(=O)N2CCC(c3ccccc3F)C2)c1O (single isomer, unassigned) [Example 13, 2-(cyclopropoxymethyl)-1-(2,6-dimethoxyphenyl)-5-(3-(2-fluorophenyl)pyrrolidine-1-carbonyl)-6-hydroxy-pyrimidin-4(1H)-one] | 8.00 to 11.00
12 | CCc1cccc(CC)c1-n1c(COC(C)C)nc(=O)c(C(=O)N2CCC(c3ccccn3)C2)c1O (single isomer, unassigned) [Example 18, 1-(2,6-diethylphenyl)-6-hydroxy-2-(isopropoxymethyl)-5-(3-(pyridin-2-yl)pyrrolidine-1-carbonyl)pyrimidin-4(1H)-one] | 8.00 to 11.00
13 | COc1cccc(OC)c1-n1c(COC2CC2)nc(=O)c(C(=O)N2CCC(c3ccccc3C)C2)c1O (single isomer, unassigned) [Example 19, 2-(cyclopropoxymethyl)-1-(2,6-dimethoxyphenyl)-6-hydroxy-5-(3-(o-tolyl)pyrrolidine-1-carbonyl)pyrimidin-4(1H)-one] | 8.00 to 11.00
14 | COc1cccc(OC)c1-n1c(COC2CC2)nc(=O)c(C(=O)N2CCC(c3ccc(Cl)cc3)C2)c1O (single isomer, unassigned) [Example 21, 5-(3-(4-chlorophenyl)pyrrolidine-1-carbonyl)-2-(cyclopropoxymethyl)-1-(2,6-dimethoxyphenyl)-6-hydroxypyrimidin-4(1H)-one] | 8.00 to 11.00
15 | COc1cccc(OC)c1-n1c(COC2CC2)nc(=O)c(C(=O)N2CCC(c3ccccc3Cl)C2)c1O (single isomer, unassigned) [Example 22, 5-(3-(2-chlorophenyl)pyrrolidine-1-carbonyl)-2-(cyclopropoxymethyl)-1-(2,6-dimethoxyphenyl)-6-hydroxypyrimidin-4(1H)-one] | 8.00 to 11.00
16 | CCc1cccc(CC)c1-n1c(COC(C)C)nc(=O)c(C(=O)N2CCC(c3ccccc3F)C2)c1O (single isomer, unassigned) [Example 25, 1-(2,6-diethylphenyl)-5-(3-(2-fluorophenyl)pyrrolidine-1-carbonyl)-6-hydroxy-2-(isopropoxymethyl) pyrimidin-4(1H)-one] | 8.00 to 11.00
17 | COc1cccc(OC)c1-n1c(COC(C)(C)C)nc(=O)c(C(=O)N2CCC(c3ccccc3Cl)C2)c1O (single isomer, unassigned) [Example 42, 2-[(tert-butoxy)methyl]-5-[3-(2-chlorophenyl)pyrrolidine-1-carbonyl]-1-(2,6-dimethoxyphenyl)-6-hydroxy-1,4-dihydropyrimidin-4-one] | 8.00 to 11.00
18 | CCCCc1nc(=O)c(C(=O)N2CCC(c3ccccc3Cl)C2)c(O)n1-c1c(OC)cccc1OC (single isomer, unassigned) [Example 43, 2-butyl-5-[3-(2-chlorophenyl)pyrrolidine-1-carbonyl]-1-(2,6-dimethoxyphenyl)-6-hydroxy-1,4-dihydropyrimidin-4-one] | 8.00 to 11.00
19 | COc1cccc(OC)c1-n1c(COC(C)(C)C)nc(=O)c(C(=O)N2CCC(c3ccccc3F)C2)c1O (single isomer, unassigned) [Example 50, 2-[(tert-butoxy)methyl]-1-(2,6-dimethoxyphenyl)-5-[3-(2-fluorophenyl)pyrrolidine-1-carbonyl]-6-hydroxy-1,4-dihydropyrimidin-4-one] | 8.00 to 11.00
20 | CCCCc1nc(=O)c(C(=O)N2CCC(c3ccccc3F)C2)c(O)n1-c1c(OC)cccc1OC (single isomer, unassigned) [Example 52, 2-butyl-1-(2,6-dimethoxyphenyl)-5-[3-(2-fluorophenyl)pyrrolidine-1-carbonyl]-6-hydroxy-1,4-dihydropyrimidin-4-one] | 8.00 to 11.00
21 | CCCCc1nc(=O)c(C(=O)N2CCC(c3ccccc3F)C2)c(O)n1-c1c(OC)cccc1OC (single isomer, unassigned) [Example 53, 2-butyl-1-(2,6-dimethoxyphenyl)-5-[3-(2-fluorophenyl)pyrrolidine-1-carbonyl]-6-hydroxy-1,4-dihydropyrimidin-4-one] | 8.00 to 11.00
22 | CCOCc1nc(=O)c(C(=O)N2CCC(c3ccccn3)C2)c(O)n1-c1c(OC)cccc1OC (single isomer, unassigned) [Example 54, 1-(2,6-dimethoxyphenyl)-2-(ethoxymethyl)-6-hydroxy-5-[3-(pyridin-2-yl)pyrrolidine-1-carbonyl]-1,4-dihydropyrimidin-4-one] | 8.00 to 11.00
23 | CCOCc1nc(=O)c(C(=O)N2CCC(c3ccccn3)C2)c(O)n1-c1c(OC)cccc1OC (single isomer, unassigned) [Example 55, 1-(2,6-dimethoxyphenyl)-2-(ethoxymethyl)-6-hydroxy-5-[3-(pyridin-2-yl)pyrrolidine-1-carbonyl]-1,4-dihydropyrimidin-4-one] | 8.00 to 11.00

Same assay, conditions: read-out: hAPJ cAMP EC50 Potency range; human APJ, intracellular cAMP accumulation

Row | SMILES | pEC50
24 | CCCCc1nc(=O)c(C(=O)N2CCC(c3ccc(Cl)cc3)C2)c(O)n1-c1c(OC)cccc1OC (single isomer, unassigned) [Example 45, 2-butyl-5-[3-(4-chlorophenyl)pyrrolidine-1-carbonyl]-1-(2,6-dimethoxyphenyl)-6-hydroxy-1,4-dihydropyrimidin-4-one] | 8.00 to 11.00
25 | CCCCc1nc(=O)c(C(=O)N2CCC(c3ccncc3)C2)c(O)n1-c1c(OC)cccc1OC (single isomer, unassigned) [Example 48, 2-butyl-1-(2,6-dimethoxyphenyl)-6-hydroxy-5-[3-(pyridin-4-yl)pyrrolidine-1-carbonyl]-1,4-dihydropyrimidin-4-one] | 8.00 to 11.00
